Results reported in patent US20230081720A1, “MCL-1 INHIBITOR ANTIBODY-DRUG CONJUGATES AND METHODS OF USE” (NOVARTIS AG, priority 2019, published 2023).
Read-outs that look alike come from different tables or passages of the source. Marks after values point to notes of the source that are not given here.

Assays:
[1] = biological target: Mcl-1 protein (Homo sapiens, UniProt Q07820); experiment: Inhibition of Mcl-1 by fluorescence polarization (FP); format: binding; settings: fluorescein-labelled ligand 1 nM, Mcl-1 protein 5 nM
Chain of Mcl-1 protein (Q07820 whole entry): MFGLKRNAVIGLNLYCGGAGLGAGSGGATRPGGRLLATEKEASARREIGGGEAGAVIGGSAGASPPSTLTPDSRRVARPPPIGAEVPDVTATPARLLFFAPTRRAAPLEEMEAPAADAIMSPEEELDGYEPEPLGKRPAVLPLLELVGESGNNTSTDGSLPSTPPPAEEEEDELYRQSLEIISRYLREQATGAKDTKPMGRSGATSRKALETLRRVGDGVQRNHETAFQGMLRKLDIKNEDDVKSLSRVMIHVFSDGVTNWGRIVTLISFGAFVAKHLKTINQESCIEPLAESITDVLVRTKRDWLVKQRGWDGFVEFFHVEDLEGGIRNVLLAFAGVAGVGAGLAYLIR
Procedure: The relative binding potency of each compound was determined via Fluorescence Polarization (FP).
An 11-point serial dilution of each compound was prepared in DMSO and 2 PI transferred into flat bottomed, low binding, 384-well plate (final DMSO concentration 5%). 38 μl of buffer (10 mM 4-(2-hydroxyethyl)-1-piperazineethanesulfonic acid [HEPES], 150 mM NaCl, 0.05% Tween 20, pH 7.4), containing the fluorescein-labelled ligand (final concentration 1 nM) and Mcl-1 protein (final concentration 5 nM) was then added.

[2] = system: NCI-H929 multiple myeloma cell line; experiment: In vitro cytotoxicity, Microculture Tetrazolium Assay (MTT); format: cell-based; settings: NCI-H929 cells, 48 hours
Procedure: Cytotoxicity studies were carried out on the NCI-H929 multiple myeloma cell line. The cells were distributed onto microplates and exposed to the test compounds for 48 hours.

[3] = system: Monomac1 cells; experiment: Viability of Monomac1 AML cell line, CellTiterGlo 72 h; format: cell-based; settings: read-out: IC50 M (CTG 72 h) Monomac1
Procedure: Monomac1 cells were cultivated in RPMI supplemented with 10% heat inactivated fetal bovine serum, penicillin (100 IU/ml), streptomycin ([…]) and L-glutamine (2 mM). Cell lines were cultured at 37° C. in a humidified atmosphere containing 5% CO2. Cells were seeded in 96 microwell plates and exposed to the payloads or ADCs for 72 h (serially diluted; 9 concentrations each, triplicates). Effects of payloads or ADCs on cell viability were assessed after 3 days of incubation at 37° C./5% CO2 by quantification of cellular ATP levels using CellTiterGlo at 75 μL reagent/well. All the conditions were tested in triplicates. Luminescence was quantified on a multipurpose plate reader. IC50s were calculated using standard four-parametric curve fitting. […] Each experiment was performed at least twice, with results being reproducible.

[4] = system: EOL1 human acute myeloid (eosinophilic) leukemia xenograft model; experiment: EOL1 xenograft, CD74-ADCs Fc silent with different linker payloads (Example 15); format: in vivo, mice; settings: for T/C (%): day 10; for ΔTumor volume (mm^3): day 10, mean
Procedure: To optimize the linker payload, efficacy of 6 CD74-ADCs with different linker payloads (L5-P1, L30-P1, L31-P1, L32-P1, L33-P1 and L34-P1) was evaluated in the EOL1 model in vivo.
EOL1 luciferase transfected cells were cultured at 37° C. in an atmosphere of 5% CO2 in air in RPM11640 (BioConcept Ltd. Amimed) supplemented with 10% FCS (BioConcept Ltd. Amimed, #2-01 F30-1), 2 mM L-glutamine (BioConcept Ltd. Amimed, #5-10K00-H) and 1 mM sodium pyruvate (BioConcept Ltd. Amimed, #5-60F00-H), 10 mM HEPES (Gibco #11560496). To establish EOL1 xenografts cells were harvested and re-suspended in HBSS (Gibco, #14175) before injecting 100 μL containing 5×10^6 cells subcutaneously in the flanks of female SCID beige mice (Charles River, Germany). Tumor growth was monitored regularly post cell inoculation and animals were randomized into treatment groups (n=6) with a mean tumor volume of about 130 mm^3. The ADCs were administered intravenously (iv) once at the start of treatment at 2.5 mg/kg or at 3.3 mg/kg in combination with venetoclax which was administered orally (po) daily (qd) at 50 mg/kg. Doses were adjusted to individual mouse body weights. The iv dose volume was 10 ml/kg and each ADC was dissolved in 0.9% (w/v) NaCl in water. Tumor volume data on day 10 post treatment were analyzed statistically using one way ANOVA post hoc Tukey's multiple comparisons test (Indigo Software). Results are presented as mean±SEM. As a measure of efficacy the % T/C value is calculated on day 10 according to:
(Δtumor volume^treated/Δtumor volume^control)*100
Tumor regression was calculated according to:
−(Δtumor volume^treated/tumor volume^treated at start)*100
Where Δtumor volumes represent the mean tumor volume on the evaluation day minus the mean tumor volume at the start of the experiment.

[5] = 2.5 mg/kg i.v. once + Venetoclax 50 mg/kg p.o. qd
[6] = female SCID beige mice, 2.5 mg/kg i.v. once + Venetoclax 50 mg/kg p.o. qd
[7] = 3.3 mg/kg i.v. once + Venetoclax 50 mg/kg p.o. qd

Compound | IC50 [1] [nM] | IC50 ([2]; Homo sapiens) [nM] | other results
COc1ccccc1-c1nccc(COc2ccccc2C[C@@H](Oc2ncnc3sc(-c4ccc(F)c(O)c4)c(-c4ccc(OCCN5CC[N+](C)(CCCS(=O)(=O)[O-])CC5)c(Cl)c4C)c23)C(=O)O)n1 [C2, (2R)-2-[(5Sa)-5-[3-chloro-2-methyl-4-[2-[4-methyl-4-(3-sulfopropyl)piperazin-4-ium-1-yl]ethoxy]phenyl]-6-(4-fluoro-3-hydroxy-phenyl)thieno[2,3-d]pyrimidin-4-yl]oxy-3-[2-[[2-(2-methoxyphenyl)pyrimidin-4-yl]methoxy]phenyl]propanoic acid] | 2.6 | 8510 | 
COc1c(O)cccc1-c1nccc(COc2ccccc2C[C@@H](Oc2ncnc3sc(-c4ccc(F)cc4)c(-c4ccc(OCCN5CCN(C)CC5)c(Cl)c4C)c23)C(=O)O)n1 [C14, (2R)-2-{[(5Sa)-5-{3-chloro-2-methyl-4-[2-(4-methylpiperazin-1-yl)ethoxy]phenyl}-6-(4-fluorophenyl)thieno[2,3-d]pyrimidin-4-yl]oxy}-3-(2-{[2-(3-hydroxy-2-methoxyphenyl)pyrimidin-4-yl]methoxy}phenyl)propanoic Acid] | 0.84 | 2.61 | 
COc1ccccc1-c1nccc(COc2ccccc2C[C@@H](Oc2ncnc3sc(-c4ccc(F)cc4)c(-c4ccc(OCCN5CC[N+](C)(Cc6ccc(NC(=O)[C@H](CCCNC(N)=O)NC(=O)[C@@H](NC(=O)CCOCCN7C(=O)CC(C)C7=O)C(C)C)cc6)CC5)c(Cl)c4C)c23)C(=O)O)n1 (stereo partly shown) [CD74-L9-P1] |  |  | IC50 ([3]; 72 h): 0.482 nM
COCCOCCOCCOCCOCCOCCOCCOCCOCCOCCOCCOCCC(=O)N(C)Cc1cc(NC(=O)[C@H](CCCNC(N)=O)NC(=O)[C@@H](NC(=O)CCOCCN2C(=O)CC(C)C2=O)C(C)C)ccc1C[N+]1(C)CCN(CCOc2ccc(-c3c(-c4ccc(F)cc4)sc4ncnc(O[C@H](Cc5ccccc5OCc5ccnc(-c6ccccc6OC)n5)C(=O)O)c34)c(C)c2Cl)CC1 (stereo partly shown) [CD74-L32-P1] |  |  | T/C (%) [4, 5]: 4*^$ %; ΔTumor volume (mm^3) [4, 6]: 38 mm^3
COCCOCCOCCOCCOCCOCCOCCOCCOCCOCCOCCOCCOCCOCCOCCOCCn1cc(COCc2cc(NC(=O)[C@H](CCCNC(N)=O)NC(=O)[C@@H](NC(=O)CCOCCN3C(=O)CC(C)C3=O)C(C)C)ccc2C[N+]2(C)CCN(CCOc3ccc(-c4c(-c5ccc(F)cc5)sc5ncnc(O[C@H](Cc6ccccc6OCc6ccnc(-c7ccccc7OC)n6)C(=O)O)c45)c(C)c3Cl)CC2)nn1 (stereo partly shown) [CD74-L34-P1] |  |  | T/C (%) [4, 5]: 40* %; T/C (%) [4, 7]: 17*^$ %; ΔTumor volume (mm^3) [4, 7]: 170 mm^3; ΔTumor volume (mm^3) [4, 6]: 401 mm^3
COc1ccccc1-c1nccc(COc2ccc3cc2C[C@H](C(=O)O)Oc2ncnc4sc(-c5ccc(F)cc5)c(c24)-c2c(C)c(Cl)c(c(Cl)c2C)O[C@H](CN2CCN(C)CC2)CO3)n1 [P15, (11R,20R)-23,26-dichloro-3-(4-fluorophenyl)-14-[[2-(2-methoxyphenyl)pyrimidin-4-yl]methoxy]-24,25-dimethyl-20-[(4-methylpiperazin-1-yl)methyl]-10,18,21-trioxa-4-thia-6,8-diazapentacyclo[20.2.2.12,5.113,17.09,28]octacosa-1(25),2,5(28),6,8,13,15,17(27),22(26),23-decaene-11-carboxylic acid] |  |  | IC50 ([3]; Mono-Mac-1, 72 h): 0.386 nM
(2R)-2-{[(5Sa)-5-{3-chloro-2-methyl-4-[2-(4-methylpiperazin-1-yl)ethoxy]phenyl}-6-(4-fluorophenyl)thieno[2,3-d]pyrimidin-4-yl]oxy}-3-(2-{[2-(4-hydroxyphenyl)pyrimidin-4-yl]methoxy}phenyl)propanoic Acid [C5] | 4.05 |  | IC50 [2]: 4.08 nM

More lines, main results first:

IC50 [1] [nM] | Compound | IC50 ([2]; Homo sapiens) [nM] | other results
0.948 | COc1ccccc1-c1nccc(COc2ccccc2C[C@@H](Oc2ncnc3sc(-c4ccc(F)cc4)c(-c4ccc(OCCN5CCNCC5)c(Cl)c4C)c23)C(=O)O)n1 [C3, (2R)-2-[(5Sa)-5-[3-chloro-2-methyl-4-(2-piperazin-1-ylethoxy)phenyl]-6-(4-fluorophenyl)thieno[2,3-d]pyrimidin-4-yl]oxy-3-[2-[[2-(2-methoxyphenyl)pyrimidin-4-yl]methoxy]phenyl]propanoic acid] | 42 | 
2.6 | Cc1c(-c2c(-c3ccc(F)cc3)sc3ncnc(OC(Cc4ccccc4OCc4ccnc(-c5ccc(CP(=O)(O)O)cc5)n4)C(=O)O)c23)ccc(OCCN2CCNCC2)c1Cl [C4, (2R)-2-[(5Sa)-5-[3-chloro-2-methyl-4-(2-piperazin-1-ylethoxy)phenyl]-6-(4-fluorophenyl)thieno[2,3-d]pyrimidin-4-yl]oxy-3-[2-[[2-[4-(phosphonomethyl)phenyl]pyrimidin-4-yl]methoxy]phenyl]propanoic acid] | 3210 | 
2.6 | CC#Cc1sc2ncnc(O[C@H](Cc3ccccc3OCc3ccnc(-c4ccccc4OC)n3)C(=O)O)c2c1-c1ccc(OCCN2CCN(C)CC2)c(Cl)c1CC [C7, (2R)-2-[(5Sa)-5-[3-chloro-2-ethyl-4-[2-(4-methylpiperazin-1-yl)ethoxy]phenyl]-6-prop-1-ynyl-thieno[2,3-d]pyrimidin-4-yl]oxy-3-[2-[[2-(2-methoxyphenyl)pyrimidin-4-yl]methoxy]phenyl]propanoic Acid] | 1.88 | 
3 | Cc1c(-c2c(-c3ccc(F)cc3)sc3ncnc(O[C@H](Cc4ccccc4OCc4ccnc(-c5cccc(OS(=O)(=O)O)c5)n4)C(=O)O)c23)ccc(OCCN2CCN(C)CC2)c1Cl [C8, (2R)-2-[(5Sa)-5-[3-chloro-2-methyl-4-[2-(4-methylpiperazin-1-yl)ethoxy]phenyl]-6-(4-fluorophenyl)thieno[2,3-d]pyrimidin-4-yl]oxy-3-[2-[[2-(3-sulfooxyphenyl)pyrimidin-4-yl]methoxy]phenyl]propanoic acid] | 574 | 
2.5 | Cc1c(-c2c(-c3ccc(F)cc3)sc3ncnc(O[C@H](Cc4ccccc4OCc4ccnc(-c5cccc(S(=O)(=O)O)c5)n4)C(=O)O)c23)ccc(OCCN2CCN(C)CC2)c1Cl [C9, (2R)-2-{[(5Sa)-5-{3-chloro-2-methyl-4-[2-(4-methylpiperazin-1-yl)ethoxy]phenyl}-6-(4-fluorophenyl)thieno[2,3-d]pyrimidin-4-yl]oxy}-3-(2-{[2-(3-sulfophenyl)pyrimidin-4-yl]methoxy}phenyl)propanoic acid] | 2270 | 
3.4 | COc1ccccc1-c1nccc(COc2ccccc2C[C@@H](Oc2ncnc3sc(-c4ccc(F)c(OCC(F)(F)F)c4)c(-c4ccc(OCCN5CCN(C)CC5)c(Cl)c4C)c23)C(=O)O)n1 [C10, (2R)-2-[(5Sa)-5-[3-chloro-2-methyl-4-[2-(4-methylpiperazin-1-yl)ethoxy]phenyl]-6-[4-fluoro-3-(2,2,2-trifluoroethoxy)phenyl]thieno[2,3-d]pyrimidin-4-yl]oxy-3-[2-[[2-(2-methoxyphenyl)pyrimidin-4-yl]methoxy]phenyl]propanoic Acid] | 13.5 | 
2.2 | COc1ccccc1-c1nccc(COc2ccccc2C[C@@H](Oc2ncnc3sc(-c4cc(N)c(F)c(F)c4)c(-c4ccc(OCCN5CCN(C)CC5)c(Cl)c4C)c23)C(=O)O)n1 [C13, (2R)-2-{[(5Sa)-6-(3-amino-4,5-difluorophenyl)-5-{3-chloro-2-methyl-4-[2-(4-methylpiperazin-1-yl)ethoxy]phenyl}thieno[2,3-d]pyrimidin-4-yl]oxy}-3-(2-{[2-(2-methoxyphenyl)pyrimidin-4-yl]methoxy}phenyl)propanoic acid] | 3.76 | 
